Measurements: PMC8071423, “A New Pyrimidine Schiff Base with Selective Activities against Enterococcus faecalis and Gastric Adenocarcinoma” (Molecules, 2021)
pIC50: −log10 of the molar value. Values after ≈ are worked out from the molar mass of the structure shown. Where two headings read alike, the source gives them in different places.

Tests used:
[1] = system: L-929 cell line; assay: Neutral red uptake assay, L-929 cell line (primary screening); type: cell-based, mouse; details: normal cell line L-929
Procedure: (§1) L-929 (mouse C3H/An connective tissue), Caco-2 (human colon adenocarcinoma), A172 (human glioblastoma), AGS (human gastric adenocarcinoma), HepaRG (human hepatoma cell), and HeLa (human cervix epithelioid carcinoma) cell lines were obtained from the European Collection of Authenticated Cell Cultures (ECACC) and provided by Sigma Aldrich/Merck (Munich, Germany). All cell lines were cultured in complete mediums prepared according to the ECACC recommendations and incubated in a humidified atmosphere with 5% CO2 at 37 °C. Neutral red uptake assay was performed according to the protocol. 24 h before treatment cells were seeded in 96-well plates in 1 × 10^5 cell/mL of complete medium. After incubation and attachment of cells, the medium was discarded, and test substances dissolved in the fresh medium were added to wells. Samples were tested after 24, 48, and 72 h incubation. A neutral red working solution (40 µg/mL) was prepared and incubated overnight. Immediately before use, it was centrifuged to remove any dye crystals. The medium from wells was aspirated, and 100 µL of neutral red was added to plates and incubated for at least 2 h in 37 °C and 5% CO2 in a humidified atmosphere. To inspect the absorption of neutral red to the lysosomes, microscope visualizations were performed. After incubation, cells were washed with PBS, and destain solution containing ethanol, deionized water, and glacial acetic acid (50:49:1) was added. Plates were shaken rapidly on a horizontal shaker at 37 °C. Absorption was measured using a Thermo Scientific™ (Waltham, MA, USA) Multiskan™ GO microplate spectrophotometer at 540 nm. The negative control was a medium with 1% DMSO, and the positive control was 1 µM staurosporine. Viability was calculated according to the following formula:(1) % Viability=ODtest substance−ODblind/ODnegative control−ODblind×100 Neutral red uptake assay was performed in quadruple (n = 4). Results were calculated to mean ± standard deviation (SD) using Microsoft Office Excel 2007. The viability in negative control was compared to 100%. Statistical analyses were performed using the GraphPad Prism 8.3 for Windows (GraphPad Software, La Jolla, CA, USA, www.graphpad.com). For IC50 results, non-linear regression analyses were performed, and a sigmoidal dose-response curve (variable slope) was fitted. Differences between groups and control were tested using an ANOVA test followed by Dunnett’s post hoc analysis. The significance was set at p ≤ 0.05.

[2] = system: HepaRG; assay: Neutral red uptake assay, HepaRG; type: cell-based; details: Homo sapiens, 72 h exposure
Procedure: (§2) L-929 (mouse C3H/An connective tissue), Caco-2 (human colon adenocarcinoma), A172 (human glioblastoma), AGS (human gastric adenocarcinoma), HepaRG (human hepatoma cell), and HeLa (human cervix epithelioid carcinoma) cell lines were obtained from the European Collection of Authenticated Cell Cultures (ECACC) and provided by Sigma Aldrich/Merck (Munich, Germany). All cell lines were cultured in complete mediums prepared according to the ECACC recommendations and incubated in a humidified atmosphere with 5% CO2 at 37 °C. Neutral red uptake assay was performed according to the protocol. 24 h before treatment cells were seeded in 96-well plates in 1 × 10^5 cell/mL of complete medium. After incubation and attachment of cells, the medium was discarded, and test substances dissolved in the fresh medium were added to wells. Samples were tested after 24, 48, and 72 h incubation. A neutral red working solution (40 µg/mL) was prepared and incubated overnight. […] Absorption was measured using a Thermo Scientific™ (Waltham, MA, USA) Multiskan™ GO microplate spectrophotometer at 540 nm. […] Viability was calculated according to the following formula:(1) % Viability=ODtest substance−ODblind/ODnegative control−ODblind×100 Neutral red uptake assay was performed in quadruple (n = 4). Results were calculated to mean ± standard deviation (SD) using Microsoft Office Excel 2007. […]

[3] = system: other cell lines (Caco-2, A172, HeLa, AGS); assay: Neutral red uptake assay, other neoplastic cell lines; type: cell-based, human; details: cell lines other than HepaRG; viability decreased at 100–1000 µM; 72 h exposure
Procedure: as §2

[4] = system: Enterococcus faecalis ATCC 29212; assay: Antimicrobial microdilution / modified Richards method; type: cell-based; details: range tested 1024 to 1 ug/mL
[5] = Neutral red uptake assay, L-929 cell line (primary screening); type: cell-based, mouse; details: mouse, L-929 cells, p < 0,05
Procedure: as §1

[6] = system: AGS; assay: Neutral red uptake assay, AGS; type: cell-based; details: Homo sapiens, 72 h exposure
Procedure: as §2

[7] = system: HeLa; assay: Neutral red uptake assay, HeLa; type: cell-based; details: Homo sapiens, 72 h exposure
Procedure: as §2

[8] = system: A172; assay: Neutral red uptake assay, A172; type: cell-based; details: Homo sapiens, A 172, 72 h exposure
Procedure: as §2

[9] = system: AGS cell line; assay: Flow cytometry viability, FDA/PI double staining; type: cell-based, human
Procedure: The flow cytometry analysis was performed to determine cell viability after treatment with a compound showing high proliferation inhibition in neutral red uptake assay. The test is based on FDA’s ability to pass through an intact cell membrane, where it can be hydrolyzed by cytoplasmic esterases to fluorescein, a bright green fluorophore. The protocol was based on a double-staining procedure with FDA and PI [75]. For stock solutions, FDA was dissolved in DMSO and PI in H2O to 1 mM concentrations. Cells were seeded in a 6-well plate with a density of 1 × 10^5 cell/well and maintained at 37 °C under 5% CO2 in a humidified atmosphere. After overnight incubation, cells were treated with a compound diluted to the following concentrations: 100, 80, 40, 10, and 1 µM. Flow cytometry analyses were performed after 24, 48, and 72 h incubation. For the analysis, both floating and adherent cells were collected, centrifuged at 1600 rpm, and washed with PBS. Cells were stained with FDA with a final concentration of 1 µM in PBS, and kept in the dark for 15 min. After incubation, cells were centrifuged, resuspended in ice-cold PBS, and kept on ice until analysis. Directly before testing, samples were stained with a 1 µM PI solution for 2 min. The acquisition was performed with a CyFlow® space flow cytometer, and data analyses were performed using the FloMax software (Partec, Münster, Germany). The percentage of viable cells was calculated based on FDA absorption according to the following formula:(2) % ViabilityFDA=% live cells under experimental conditions/% live cells from negative control×100

[10] = system: AGS cell line; assay: Microscopic observation of cell and nucleus morphology, Hoechst 33342; type: cell-based, human; details: 50 µM, 72 h
Procedure: Morphological changes and DNA fragmentation were examined with an Olympus IX53 inverted fluorescence microscope after staining with Hoechst 33342 according to the manufacturer’s recommendations Thermo Scientific (Waltham, MA, USA). Briefly, cells were seeded in 12-well plates with a density of 1 × 10^5 cell/mL. After overnight incubation, the test substance was added in a half-maximal inhibitory (IC50) concentration and incubated for 24, 48, and 72 h. Before microscopic observation, both adherent and floating cells were collected, centrifuged, resuspended in PBS containing 1 µg/mL Hoechst 33342 dye. After 10 min incubation in the dark, the morphology of cells and DNA were visualized using a contrast phase and a UV filter.

[11] = system: AGS cell line; assay: Annexin V/PI staining, flow cytometry; type: cell-based, human; details: 24 h incubation
Procedure: A quantitative analysis of apoptosis was performed by flow cytometry with Alexa Fluor 488 annexin V and PI staining (Thermo Scientific Waltham, MA, USA). Briefly, 3 × 10^5 cells were seeded in 6-well plates. After overnight incubation, the tested compound was added to wells in 5 × IC50 concentration (250 µM). Cells were incubated and tested after 6, 12, 18, and 24 h, according to the manufacturer’s protocol. After incubation, cells were harvested, washed with PBS, and resuspended in 1× binding buffer to a final concentration of 1–5 × 10^6 cell/mL. Then 5 µL of Alexa Fluor 488-annexin V was added to 100 µL of cell suspension and incubated in the dark for 15 min. After incubation, the dye was removed, and cells were suspended in 1 mL of binding buffer. Directly before analysis, cells were incubated with 1 µL PI for 2 min and analyzed by flow cytometry (using CyFlow® Space flow cytometer and FloMax software).

[12] = system: AGS cell line; assay: Comet assay (alkaline single-cell gel electrophoresis), DNA damage; type: cell-based, human; details: 50 µM
Procedure: To evaluate DNA damage induced by incubation with 3, alkaline single-cell gel electrophoresis (comet assay) was performed. Cells were seeded in 12-well plates in a density of 1 × 10^5 cell/well. After overnight incubation, the tested compound in IC50 concentration (50 µM) was added. After incubation, cells were harvested, centrifuged, and resuspended in PBS. The cell suspension was mixed with 1% low melting point agarose and attached to the slide covered with 1% normal melting point agarose. Subsequently, slides were incubated in a buffer (pH 10.0) containing 2.5 M NaCl, 10 mM Tris-HCl buffer, 100 mM EDTA, and 1% Triton X-100 for 1 h. Then samples were transferred to alkaline electrophoresis buffer containing 0.3 M […] and 1mM EDTA for a 20 min incubation followed by electrophoresis performed at 25 V and 300 mA for 20 min. After electrophoresis, samples were incubated with a neutral pH buffer (0.4 M Tris-HCl, pH 7.5) for 10 min and washed with deionized water. After air-drying, samples were stained with Hoechst 33342 and visualized with a fluorescence microscope using a UV filter. The damages were visually scored from 100 randomly selected cells. […] Based on results, the damage index (DI) was calculated according to the following formula:(3) DI=0×n0+1×n1+2×n2+3×n3+4×n4, where n stands for the amount of each class.

[13] = Enterococcus faecalis ATCC 29212
[14] = Enterococcus faecalis, ATCC29212, Enterococcus faecalis ATCC 29212, read-out: MBC
[15] = Enterococcus faecalis, ATCC29212, Enterococcus faecalis ATCC 29212, read-out: MIC

Compound: CCOc1ccc(NCc2c(C)nc(-c3ccccc3)nc2Nc2ccc(F)cc2)cc1 [Compound 2, 5-[(4-ethoxyanilino)methyl]-N-(4-fluorophenyl)-6-methyl-2-phenylpyrimidin-4-amine]
- effect on L-929 survival [1]: did not significantly affect L-929 survival
- pIC50 [2]: 3.39
- IC50 [3]: IC50 was not reached
- MBC [4, 13]: 1024 µg/mL (≈ 2390 µM)
- MIC [4, 13]: 512 µg/mL (≈ 1190 µM)
- MBC [4, 14]: 512 µg/mL (≈ 1190 µM)
- MIC [4, 15]: 1020 µg/mL (≈ 2390 µM)
- melting point: 163 to 164 °C

Compound: CCOc1ccc(N=Cc2c(C)nc(-c3ccccc3)nc2Nc2ccc(F)cc2)cc1 [Compound 3, 5-[(4-ethoxyphenyl)imino]methyl-N-(4-fluorophenyl)-6-methyl-2-phenylpyrimidin-4-amine]
- viability at 250 µM ([5]; L-929, 250 µM): 115%
- viability at 500 µM ([5]; L-929, 500 µM): 111%
- viability at 1000 µM ([5]; L-929, 1000 µM): 115%
- pIC50 [2]: 3.50
- pIC50 [6]: 4.30
- pIC50 [7]: 3.45
- pIC50 [8]: 3.28
- cells in Q3 (unstained) ([9]; 100 µM): 43.72%
- cells in Q4 (PI stained, dead) ([9]; 100 µM): 35.76%
- viability at 1 µM ([9]; Homo sapiens, 1 µM, read-out: cells in Q1 (FDA stained, viable)): 81.5%
- viability at 10 µM ([9]; Homo sapiens, 10 µM, read-out: cells in Q1 (FDA stained, viable)): 66.4%
- viability at 40 µM ([9]; Homo sapiens, 40 µM, read-out: cells in Q1 (FDA stained, viable)): 62.4%
- viability at 80 µM ([9]; Homo sapiens, 80 µM, read-out: cells in Q1 (FDA stained, viable)): 41.8%
- viability at 100 µM ([9]; Homo sapiens, 100 µM, read-out: cells in Q1 (FDA stained, viable)): 20.2%
- pIC50 ([9]; Homo sapiens, referred to control with 1% DMSO): 4.28
- cell and nucleus morphology [10]: broke apart into apoptotic bodies
- necrotic cells (stained with PI only) ([11]; 250 µM, control 0.71%): 2.22%
- late apoptotic cells (double-stained) ([11]; 250 µM, control 2.48%): 21.58%
- early apoptotic cells (annexin V stained) ([11]; 250 µM, control 3.24%): 16.18%
- viability at 250 µM ([11]; Homo sapiens, control 93.57%, read-out: viable cells (unstained)): 60%
- DNA damage index (DI) ([12]; 48 h, control 52): 183
- DNA damage index (DI) ([12]; 72 h, control 20): 259
- MBC [4, 13]: 32 µg/mL (≈ 75 µM)
- MIC [4, 13]: 16 µg/mL (≈ 37.5 µM)
- MBC [4, 14]: 16 µg/mL (≈ 37.5 µM)
- MIC [4, 15]: 32 µg/mL (≈ 75 µM)

Compound: Cc1nc(-c2ccccc2)nc(Nc2ccc(F)cc2)c1C=O [Compound 4, 4-(4-fluoroanilino)-6-methyl-2-phenylpyrimidine-5-carbaldehyde]
- melting point: 184 °C
